Read-outs that look alike come from different tables or passages of the source.
Tests used:
[1] = Apparent BBB permeability coefficient, in vitro BBB model (BBB Kit); details: rat and monkey
Experimental: The BBB Kit™ was kept at −80° C. until thawing on day 0 of the experiments. Nutritional medium was added to both brain and blood sides of the wells. This solution consists of DMEM F-12 medium with FCS 10% v/v, heparin 100 μg/ml, basic fibroblast growth factor (bFGF) 1.5 ng/ml, insulin 5 μg/ml, transferrin 5 μg/ml, sodium selenite 5 ng/ml, hydrocortisone 500 nM and gentamycin 50 μg/ml. Fresh medium was added 3 hours after thawing following the manufacturer's instructions, and 24 hours later. The plates were incubated at 37° C. until day 4 of the experiment when the condition of astrocytes was checked under a light microscope. Following this, the integrity of the collagen-coated membrane was verified by the measurement of the transendothelial electrical resistance (TEER) using an ohmmeter provided by the manufacturer. […] Detailed information regarding the components of the BBB Kit as well as its mechanisms can be seen by accessing the manufacturer's website http://www.pharmacocell.co.jp/en/bbb/index_e.html.
Standard curves were generated for each compound on a light spectrophotometer as previously described. 100 μM of each compound was added to the luminal (blood side) of the wells, incubated at 37° C. for 30 minutes and then, the amount of drug that crossed the in vitro BBB was collected and measured under a light spectrophotometer at 230 nanometer absorbances.
Papp was calculated using the following mathematical formula: […]
This model (BBB Kit™) is thought to represent an in vitro BBB model for drug transport assays, permitting an adequate cross-talk of the cell lines involved and provide a way to test an apparent passage of small molecules across the BBB as previously described by Nakagawa et al. (41). […] The concentrations of each compound that permeated into the abluminal interface (termed “brain side”) were determined using a spectrophotometer, 30 min after the addition of each drug to the wells.
The mathematical formula used for the calculation of Papp is described in Materials and Methods.

HIV-1LAI = experiment: Drug susceptibility MTT assay, MT-2 cells exposed to HIV-1LAI; format: cell-based; details: for Selectivity Index: ratio of CC50 to EC50 against HIV-1LAI
Experimental: (§1) The susceptibility of HIV-1LAI to various drugs was determined as previously described with minor modifications. Briefly, MT-2 cells (10^4/ml) were exposed to 100 50% tissue culture infectious doses (TCID50) of HIV-1LAI in the presence or absence of various concentrations of drugs in 96-well microculture plates and were incubated at 37° C. for 7 days. After 100 μl of the medium was removed from each well, 3-(4,5-dimetylthiazol-2-yl)-2,5-diphenyltetrazolium bromide (MTT) solution (10 μl, 7.5 mg/ml in phosphate-buffered saline) was added to each well in the plate, followed by incubation at 37° C. for 2 h. […] All assays were performed in duplicate or triplicate. […] To determine the sensitivity of primary HIV-1 isolates to drugs, phytohemagglutinin-stimulated peripheral blood mononuclear cells (PHA-PBMC) (10^6/ml) were exposed to 50 TCID50 of each primary HIV-1 isolate and cultured in the presence or absence of various concentrations of drugs in 10-fold serial dilutions in 96-well microculture plates. In determining the drug susceptibility of certain laboratory HIV-1 strains, MT-4 cells were employed as target cells as previously described with minor modifications. In brief, MT-4 cells (10^5/ml) were exposed to 100 TCID50 of drug-resistant HIV-1 strains in the presence or absence of various concentrations of drugs and were incubated at 37° C. On day 7 of culture, the supernatants were harvested and the amounts of p24 Gag protein were determined by using a fully automated chemiluminescent enzyme immunoassay system (Lumipulse F: Fujirebio Inc., Tokyo). […] All assays were performed in duplicate or triplicate. PHA-PBMs were derived from a single donor in each independent experiment. Thus, for obtaining the data, three different donors were recruited.

HIV-1MDR/C = experiment: microbe, parasite or virus in culture; format: cell-based; details: for EC50: Human immunodeficiency virus 1, read-out: EC50 HIV-1MDR/C (X4); for fold change of EC50 HIV-1MDR/C vs HIV-1ERS104pre: number in parentheses
Experimental: All primary HIV-1 strains were passaged once or twice in 3-day-old phytohemagglutinin activated peripheral blood mononuclear cells (PHA-PBM), and the culture supernatants were stored at −80° C. until use.
as §1

HIV-1NL4-3 = experiment: p24 Gag production inhibition in MT-4 cells, wild-type laboratory strain; format: cell-based
Experimental: as §1

HIV-1SQV^R5μM = experiment: microbe, parasite or virus in culture; format: cell-based; details: for EC50: Human immunodeficiency virus 1, MT4, read-out: EC50 HIV-1SQV^R5μM; for fold change of EC50 HIV-1SQV^R5μM vs HIV-1NL4-3: number in parentheses
Experimental: as §1

HIV-1LPV^R5μM = experiment: microbe, parasite or virus in culture; format: cell-based; details: for EC50: Human immunodeficiency virus 1, MT4, read-out: EC50 HIV-1LPV^R5μM; for fold change of EC50 HIV-1LPV^R5μM vs HIV-1NL4-3: number in parentheses
Experimental: as §1

HIV-1ATV^R5μM = experiment: microbe, parasite or virus in culture; format: cell-based; details: for EC50: Human immunodeficiency virus 1, MT4, read-out: EC50 HIV-1ATV^R5μM; for fold change of EC50 HIV-1ATV^R5μM vs HIV-1NL4-3: number in parentheses
Experimental: as §1

[2] = test system: HIV-1GRL-04810^RP18, and HIV-1GRL-05010^RP10; experiment: p24 assay, the two GRL-selected variants taken together; format: cell-based; details: Human immunodeficiency virus 1, read-out: EC50 values against HIV-1GRL-04810^RP18 and HIV-1GRL-05010^RP10
Experimental: as §1

[3] = Cytotoxicity (CC50), MTT assay; format: cell-based; details: human
Experimental: The susceptibility of HIV-1LAI to various drugs was determined as previously described with minor modifications. Briefly, MT-2 cells (10^4/ml) were exposed to 100 50% tissue culture infectious doses (TCID50) of HIV-1LAI in the presence or absence of various concentrations of drugs in 96-well microculture plates and were incubated at 37° C. for 7 days. After 100 μl of the medium was removed from each well, 3-(4,5-dimetylthiazol-2-yl)-2,5-diphenyltetrazolium bromide (MTT) solution (10 μl, 7.5 mg/ml in phosphate-buffered saline) was added to each well in the plate, followed by incubation at 37° C. for 2 h. […] All assays were performed in duplicate or triplicate. […] In determining the drug susceptibility of certain laboratory HIV-1 strains, MT-4 cells were employed as target cells as previously described with minor modifications. In brief, MT-4 cells (10^5/ml) were exposed to 100 TCID50 of drug-resistant HIV-1 strains in the presence or absence of various concentrations of drugs and were incubated at 37° C. On day 7 of culture, the supernatants were harvested and the amounts of p24 Gag protein were determined by using a fully automated chemiluminescent enzyme immunoassay system (Lumipulse F: Fujirebio Inc., Tokyo). […] All assays were performed in duplicate or triplicate. PHA-PBMs were derived from a single donor in each independent experiment. Thus, for obtaining the data, three different donors were recruited.

[4] = Human immunodeficiency virus 1, MT2, read-out: EC50 HIV-1LAI, MT-2 cells, 100 TCID50, MTT assay
[5] = read-out: EC50 HIV-1LAI, MT-2 cells, 100 TCID50, MTT assay
[6] = Human immunodeficiency virus 1, MT4, read-out: EC50 HIV-1NL4-3
[7] = Human immunodeficiency virus 1, MT2, MT-2 cells, 100 TCID50, MTT assay, read-out: EC50 HIV-1LAI
[8] = Human immunodeficiency virus 1, MT4, MT-4 cells, p24 Gag endpoint, read-out: EC50 HIV-1NL4-3

| SMILES | Papp at 30 min, 100 μM [1] | EC50 (HIV-1LAI; [4]) | EC50 (HIV-1LAI; [5]) | EC50 (HIV-1MDR/C) | EC50 (HIV-1NL4-3; [6]) | EC50 (HIV-1SQV^R5μM) | EC50 (HIV-1LPV^R5μM) | EC50 (HIV-1ATV^R5μM) | Papp at 30 min, 100 μM ([1]; Papp) | EC50 (HIV-1LAI; [7]) | Selectivity Index (HIV-1LAI) | fold change of EC50 HIV-1MDR/C vs HIV-1ERS104pre (HIV-1MDR/C) | EC50 [2] | EC50 (HIV-1NL4-3; [8]) | fold change of EC50 HIV-1SQV^R5μM vs HIV-1NL4-3 (HIV-1SQV^R5μM) | fold change of EC50 HIV-1LPV^R5μM vs HIV-1NL4-3 (HIV-1LPV^R5μM) | fold change of EC50 HIV-1ATV^R5μM vs HIV-1NL4-3 (HIV-1ATV^R5μM) | CC50 at 7 days [3] | CC50 at 7 days ([3]; 50% cytotoxicity, read-out: CC50) |
| --- | --- | --- | --- | --- | --- | --- | --- | --- | --- | --- | --- | --- | --- | --- | --- | --- | --- | --- | --- |
| CC(C)CN(C[C@@H](O)[C@H](Cc1ccccc1)NC(=O)O[C@H]1CO[C@H]2OCC[C@H]21)S(=O)(=O)c1ccc(N)cc1 [DRV, darunavir] | 9.9 ×10⁻⁶ cm/s | 5 to 30 nM | 5 ± 1 nM | 5 nM | 4 nM | 40 nM | 32 nM | 50 nM | – | – | – | – | – | – | – | – | – | – | – |
| CC(C)CN(C[C@@H](O)[C@H](Cc1ccccc1)NC(=O)O[C@H]1CO[C@H]2OCC(F)(F)[C@H]21)S(=O)(=O)c1ccc(N)cc1 [GRL-05010] | – | – | – | 2 nM | – | 46 nM | 30 nM | 40 nM | 61.8 ×10⁻⁶ cm/s | 3 nM | 12,333 | 1 fold | 29 to 39 nM | 3.7 nM | 13 fold | 8 fold | 12 fold | – | – |
| COC(=O)N[C@H](C(=O)N[C@@H](Cc1ccccc1)[C@@H](O)CN(Cc1ccc(-c2ccccn2)cc1)NC(=O)[C@@H](NC(=O)OC)C(C)(C)C)C(C)(C)C [ATV, Atazanavir] | – | 5 to 30 nM | 5 ± 1 nM | 430 nM | 4.7 nM | > 1000 nM | 33 nM | > 1000 nM | 15.4 ×10⁻⁶ cm/s | – | 5,720 | 204 fold | – | – | > 250 fold | 8 fold | > 250 fold | 28600 ± 900 nM | – |
| CC(C)(C)NC(=O)[C@@H]1C[C@@H]2CCCC[C@@H]2CN1C[C@@H](O)[C@H](Cc1ccccc1)NC(=O)[C@H](CC(N)=O)NC(=O)c1ccc2ccccc2n1 [SQV, Saquinavir] | – | – | – | 310 nM | 37 nM | > 1000 nM | 25 nM | 460 nM | 4.9 ×10⁻⁶ cm/s | – | 843 | 78 fold | 32 to 36 nM | – | > 25 fold | 1 fold | 12 fold | – | 17700 ± 3400 nM |
| COc1ccc(S(=O)(=O)N(CC(C)C)C[C@@H](O)[C@H](Cc2ccccc2)NC(=O)OC2CO[C@H]3OCC(F)(F)[C@@H]23)cc1 (some centres unmarked) [GRL-04810] | – | – | – | 2 nM | – | 130 nM | 30 nM | 20 nM | 47.8 ×10⁻⁶ cm/s | 0.8 nM | 21,875 | 1 fold | 29 to 39 nM | 0.5 nM | 260 fold | 66 fold | 36 fold | 17500 nM | – |
